This note sets out measurements from ChEMBL document CHEMBL4038283, “Synthesis of conformationally restricted 1,3-dioxanes to analyze the bioactive conformation of 1,3-dioxane-based σ1 and PCP receptor antagonists” (Bioorg Med Chem, 2017).

For experiment [1], the target named is Sigma non-opioid intracellular receptor 1 (Cavia porcellus, UniProt Q60492). Kind of experiment: Displacement of [3H]-(+)-pentazocine from sigma1 receptor in guinea pig brain cortex membrane incubated for 120 mins measured for 5 mins by scintillation counting method. Type of experiment: cell membranes. In general terms: Loss of bound radioactivity is the signal in a displacement assay; it reports binding, not function.
Sigma non-opioid intracellular receptor 1, sequence (Q60492 whole entry): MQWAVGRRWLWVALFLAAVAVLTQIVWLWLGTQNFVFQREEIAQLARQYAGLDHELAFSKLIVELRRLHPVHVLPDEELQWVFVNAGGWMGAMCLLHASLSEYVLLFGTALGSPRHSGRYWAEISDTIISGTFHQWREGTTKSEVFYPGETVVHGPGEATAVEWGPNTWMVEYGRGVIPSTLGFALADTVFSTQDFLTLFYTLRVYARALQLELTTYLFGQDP

The target of experiment [2] is T1, Sigma intracellular receptor 2 (Rattus norvegicus, UniProt Q5U3Y7).
T1 sequence (Q5U3Y7 whole entry): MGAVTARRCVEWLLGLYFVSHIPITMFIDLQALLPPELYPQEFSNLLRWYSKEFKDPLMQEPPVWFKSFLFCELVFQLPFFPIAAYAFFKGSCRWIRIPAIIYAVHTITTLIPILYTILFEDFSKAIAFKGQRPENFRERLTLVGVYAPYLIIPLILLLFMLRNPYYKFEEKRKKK
The experiment is described as follows: Displacement of [3H]-di-o-tolylguanidine from sigma2 receptor in rat liver membrane incubated for 120 mins measured for 5 mins by scintillation counting method. Type of experiment: cell membranes.

Experiment [3] is described as follows: Displacement of [3H]-(+)-MK-801 from NMDA PCP binding site in pig brain cortex membrane incubated for 120 mins measured for 5 mins by scintillation counting method. Type of experiment: cell membranes, Sus scrofa.

By Ki is commonly meant a dissociation constant, usually derived from enzyme kinetics or from competition with a known ligand. The low end stands for a stronger hold on the target, the high end for a looser hold on the target. For `NCCC1CC2OC(Cc3ccccc32)O1` (mixture of isomers), the Ki in experiment [1], in experiment [2] and in experiment [3] was over 1000 nM each time.
As to `CN(C)CCC1CC2OC(Cc3ccccc32)O1` (racemic), the Ki in experiment [1], in experiment [2] and in experiment [3] was over 1000 nM throughout.
With `NCCC1CC2OC(Cc3ccccc32)O1` (racemic), the Ki in experiment [1] and in experiment [2] was over 1000 nM throughout.
With `c1ccc(CNCCC2CC3OC(Cc4ccccc43)O2)cc1` (racemic; 21a), the results for the Ki in experiment [1], in experiment [2] and in experiment [3] were 30 nM, over 1000 nM and over 1000 nM, respectively.
Consider `c1ccc(CNCCC2CC3OC(Cc4ccccc43)O2)cc1` (racemic; 21b), for which the Ki was 5.9 nM in experiment [1] and 153 nM in experiment [2].
As for `c1ccc(CN(CCC2CC3OC(Cc4ccccc43)O2)Cc2ccccc2)cc1` (racemic; 22a), the inhibitory constant (Ki) is 1400 nM in experiment [1], over 1000 nM in experiment [2] and over 1000 nM in experiment [3].
As for `c1ccc(CN(CCC2CC3OC(Cc4ccccc43)O2)Cc2ccccc2)cc1` (racemic; 22b), the Ki is 782 nM in experiment [1] and over 1000 nM in experiment [2].
